The text below walks through data of PubChem BioAssay (NCI).

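Test compounds were applied to cells in 96-well plates for 48 hours at 5 doses. GI50: concentration for 50% inhibition of growth. Definition used: TGI = concentration required for complete inhibition of growth.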 Where only a bound is given, the exact number is not on record here.

Holding throughout (assay): inhibition of tumour cell growth, NCI panel, 48 h
The test system of assay [1] is HCC-2998 colon.
Assay [2] deals with COLO 205 colon.
Assay [3] has as its system A549 NSCLC.
Assay [4] has as its system K-562 leukemia.
The subject of assay [5] is HOP-92 NSCLC.
Assay [6] concerns U251 CNS.
Assay [7] deals with SN12C renal.
The test system of assay [8] is MDA-MB-231 breast.
For assay [9], the system named is NCI/ADR-RES ovarian.

`COC1=CC2(C=CC1=O)c1cc(OC)c(OC)cc1CCN2C(=O)c1ccccc1` (stereo unspecified): the TGI in assay [1], in assay [2], in [3], in [4], in assay [5] and in assay [6] was above 100 µM each time. In [7], this compound gave a TGI above 100 µM.
As for `CCCCCCC(=O)C/C(=N/NC(N)=S)C(=O)NC1C2CC3CC(C2)CC1C3` (stereo unspecified), the TGI in [1], in [2], in assay [3], in assay [5], in [6] and in [7] was above 100 µM in each case.
With `N.N.O=C([O-])P(=O)([O-])[O-].[Na+].[Pt+4]`, the GI50 in assay [1], in [2], in assay [3], in assay [4], in assay [6] and in assay [7] was above 100 µM in each case. The TGI in assay [1], in [2], in assay [3], in assay [4], in assay [6] and in assay [7] was above 100 µM in each case.
Consider `Cc1nc2ccccc2c(=O)n1-c1ccccc1F`, for which the TGI in assay [1], in assay [2], in [3], in assay [4], in assay [5] and in assay [6] was above 100 µM each time. Moreover, the TGI in assay [7] was above 100 µM.
As to `CC(C)c1ccc(C(c2ccc(OCC(=O)O)cc2)c2ccc(C(C)C)cc(=O)c2O)c(O)c(=O)c1`, the TGI in [1] is 20.3 µM; in assay [2], above 100 µM; in assay [3] it was 21.3 µM; in [4], 35.5 µM; in assay [5] it was 0.956 µM; in assay [6] it was 24.9 µM. In assay [7], this compound gave a TGI of 24.3 µM.
Regarding `CC(=O)O.[Au].c1ccc([PH+](c2ccccc2)c2ccccc2)cc1`, the GI50 was 7 µM in assay [1]; 1.99 µM in assay [2]; 18.8 µM in assay [3]; 3.02 µM in assay [5]; 2.57 µM in assay [6]; 2.94 µM in assay [7]. Besides, the TGI in assay [1] was 15.2 µM; in assay [2], 4.73 µM; in assay [3] it was 66.1 µM; in assay [5], 5.1 µM; in assay [6] it was 7.49 µM; in assay [7], 8.85 µM.
For the compound `CNc1nc(N)c(N=O)c(Nc2ccc(Br)cc2)n1`, the TGI in [1], in assay [2], in assay [3], in assay [4], in assay [6] and in assay [7] was above 100 µM throughout. The TGI in assay [8] and in assay [9] was above 100 µM in each case.
In the case of `CCCS(=O)(=O)/C(=C(\c1ccc(Br)cc1)S(=O)(=O)CCC)c1ccc(Br)cc1`, the TGI in assay [1], in assay [2], in assay [3], in assay [4], in [5] and in [6] was above 10 µM each time. The compound also returned a TGI in [7] above 10 µM.
Turning to `CC(=O)N1C/C(=C\c2ccc(N(C)C)cc2)C(=O)/C(=C/c2ccc(N(C)C)cc2)C1`, the TGI in assay [1], in assay [3], in [4], in assay [5], in assay [6] and in [7] was above 100 µM throughout.
As for `c1cc2c(ncc3cscc32)s1`, the TGI in assay [1], in assay [2], in assay [3], in assay [4], in assay [5] and in assay [6] was above 100 µM in each case. Also, the TGI in [7], in assay [8] and in assay [9] was above 100 µM each time.
As to `OC/C=C(\I)CCCOCOCc1ccccc1`, the TGI in assay [1] is above 100 µM; in assay [2] it was above 100 µM; in assay [3], above 100 µM; in assay [4], above 100 µM; in assay [5] it was 53.4 µM; in assay [6], 64 µM. In [7], this compound displayed a TGI above 100 µM.
On to `CC1=N/C(=C\c2cccc([N+](=O)[O-])c2)C(=O)O1`, for which the TGI in assay [1], in [2], in assay [3], in [4], in [5] and in assay [6] was above 100 µM each time. In addition, in assay [7], the TGI is above 100 µM.
Turning to `C/C=C1/C(=C/c2[nH]c(/C=c3\[nH]/c(=C/C4=NC(=O)C(CC)=C4C)c(C)c3CCC(=O)O)c(CCC(=O)O)c2C)NC(=O)C1C` (stereo unspecified), the GI50 in assay [1] was above 150 µg/mL; in assay [2] it was above 150 µg/mL; in [3], above 150 µg/mL; in [4], above 150 µg/mL; in [5], 103 µg/mL; in assay [6] it was above 150 µg/mL. In assay [7], the GI50 was above 150 µg/mL. In addition, the TGI in assay [1], in assay [2], in assay [3], in [4], in assay [5] and in assay [6] was above 150 µg/mL each time. For the same compound, the TGI in assay [7] was above 150 µg/mL.
Regarding `CC(C)c1cc2c(O)c(c1)Cc1cc(C(C)C)cc(c1O)Cc1cc(C(C)C)cc(c1O)Cc1cc(C(C)C)cc(c1O)C2`, the TGI in [2], in [3], in [4], in assay [5] and in assay [6] was above 100 µM in each case.
Turning to `N#CCC(=O)NC1C2CC3CC(C2)CC1C3` (stereo unspecified), the TGI in assay [1] is 31.9 µM; in assay [2], 34 µM; in [3] it was above 100 µM; in [4] it was above 100 µM; in [5], 36.1 µM; in assay [6], 29.8 µM. The same compound displayed a TGI in [7] of 31.5 µM.
